# In ChEMBL document CHEMBL5154747, “Discovery of new carbonic anhydrase IX inhibitors as anticancer agents by toning the hydrophobic and hydrophilic rims of the active site to encounter the dual-tail approach” (Eur J Med Chem, 2022):
# What was measured:
# Type in all cases: functional
# SK-OV-3 = assay: Anticancer activity against human SK-OV-3 cells assessed as cell growth inhibition incubated for 48 hrs by SRB assay
# OVCAR-4 = assay: Anticancer activity against human OVCAR-4 cells assessed as cell growth inhibition at 10 uM incubated for 48 hrs by SRB assay relative to control; settings: read-out: GI
# SK-MEL-28 [1] = assay: Anticancer activity against human SK-MEL-28 cells assessed as cell growth inhibition at 10 uM incubated for 48 hrs by SRB assay relative to control; settings: read-out: GI
# RPMI-8226 = assay: Anticancer activity against human RPMI-8226 cells assessed as cell growth inhibition incubated for 48 hrs by SRB assay
# TK-10 [2] = assay: Anticancer activity against human TK-10 cells assessed as cell growth inhibition at 10 uM incubated for 48 hrs by SRB assay relative to control; settings: read-out: GI
# SK-MEL-28 [3] = assay: Anticancer activity against human SK-MEL-28 cells assessed as cell growth inhibition incubated for 48 hrs by SRB assay
# OVCAR-8 = assay: Anticancer activity against human OVCAR-8 cells assessed as cell growth inhibition at 10 uM incubated for 48 hrs by SRB assay relative to control; settings: read-out: GI
# K562 = assay: Anticancer activity against human K562 cells assessed as cell growth inhibition at 10 uM incubated for 48 hrs by SRB assay relative to control; settings: read-out: GI
# SNB-19 = assay: Anticancer activity against human SNB-19 cells assessed as cell growth inhibition at 10 uM incubated for 48 hrs by SRB assay relative to control; settings: read-out: GI
# COLO 205 [4] = assay: Anticancer activity against human COLO 205 cells assessed as cell growth inhibition at 10 uM incubated for 48 hrs by SRB assay relative to control; settings: read-out: GI
# 786-0 [5] = assay: Anticancer activity against human 786-0 cells assessed as cell growth inhibition incubated for 48 hrs by SRB assay
# MDA-MB-435 = assay: Anticancer activity against human MDA-MB-435 cells assessed as cell growth inhibition incubated for 48 hrs by SRB assay
# ACHN = assay: Anticancer activity against human ACHN cells assessed as cell growth inhibition incubated for 48 hrs by SRB assay
# U-251 = assay: Anticancer activity against human U-251 cells assessed as cell growth inhibition at 10 uM incubated for 48 hrs by SRB assay relative to control; settings: read-out: GI
# COLO 205 [6] = assay: Anticancer activity against human COLO 205 cells assessed as cell growth inhibition incubated for 48 hrs by SRB assay
# BT-549 [7] = assay: Anticancer activity against human BT-549 cells assessed as cell growth inhibition at 10 uM incubated for 48 hrs by SRB assay relative to control; settings: read-out: GI
# M14 = assay: Anticancer activity against human M14 cells assessed as cell growth inhibition incubated for 48 hrs by SRB assay
# OVCAR-3 = assay: Anticancer activity against human OVCAR-3 cells assessed as cell growth inhibition incubated for 48 hrs by SRB assay
# EKVX = assay: Anticancer activity against human EKVX cells assessed as cell growth inhibition at 10 uM incubated for 48 hrs by SRB assay relative to control; settings: read-out: GI
# BT-549 [8] = assay: Anticancer activity against human BT-549 cells assessed as cell growth inhibition incubated for 48 hrs by SRB assay
# OVCAR-5 = assay: Anticancer activity against human OVCAR-5 cells assessed as cell growth inhibition at 10 uM incubated for 48 hrs by SRB assay relative to control; settings: read-out: GI
# DU-145 [9] = assay: Anticancer activity against human DU-145 cells assessed as cell growth inhibition at 10 uM incubated for 48 hrs by SRB assay relative to control; settings: read-out: GI
# HL-60(TB) [10] = assay: Anticancer activity against human HL-60(TB) cells assessed as cell growth inhibition incubated for 48 hrs by SRB assay
# NCI-H322M = assay: Anticancer activity against human NCI-H322M cells assessed as cell growth inhibition at 10 uM incubated for 48 hrs by SRB assay relative to control; settings: read-out: GI
# MDA-MB-468 = assay: Anticancer activity against human MDA-MB-468 cells assessed as cell growth inhibition incubated for 48 hrs by SRB assay
# HL-60(TB) [11] = assay: Anticancer activity against human HL-60(TB) cells assessed as cell growth inhibition at 10 uM incubated for 48 hrs by SRB assay relative to control; settings: read-out: GI
# PC-3 = assay: Anticancer activity against human PC-3 cells assessed as cell growth inhibition incubated for 48 hrs by SRB assay
# HOP-62 = assay: Anticancer activity against human HOP-62 cells assessed as cell growth inhibition at 10 uM incubated for 48 hrs by SRB assay relative to control; settings: read-out: GI
# SF-295 [12] = assay: Anticancer activity against human SF-295 cells assessed as cell growth inhibition at 10 uM incubated for 48 hrs by SRB assay relative to control; settings: read-out: GI
# SF-295 [13] = assay: Anticancer activity against human SF-295 cells assessed as cell growth inhibition incubated for 48 hrs by SRB assay
# 786-0 [14] = assay: Anticancer activity against human 786-0 cells assessed as cell growth inhibition at 10 uM incubated for 48 hrs by SRB assay relative to control; settings: read-out: GI
# CAKI-1 = assay: Anticancer activity against human CAKI-1 cells assessed as cell growth inhibition incubated for 48 hrs by SRB assay
# IGROV-1 = assay: Anticancer activity against human IGROV-1 cells assessed as cell growth inhibition incubated for 48 hrs by SRB assay
# RXF 393 = assay: Anticancer activity against human RXF 393 cells assessed as cell growth inhibition at 10 uM incubated for 48 hrs by SRB assay relative to control; settings: read-out: GI
# TK-10 [15] = assay: Anticancer activity against human TK-10 cells assessed as cell growth inhibition incubated for 48 hrs by SRB assay
# DU-145 [16] = assay: Anticancer activity against human DU-145 cells assessed as cell growth inhibition incubated for 48 hrs by SRB assay
# MDA-MB-231 = assay: Anticancer activity against human MDA-MB-231 cells assessed as cell growth inhibition incubated for 48 hrs by SRB assay
# MOLT-4 = assay: Anticancer activity against human MOLT-4 cells assessed as cell growth inhibition at 10 uM incubated for 48 hrs by SRB assay relative to control; settings: read-out: GI
# HCC 2998 = assay: Anticancer activity against human HCC 2998 cells assessed as cell growth inhibition incubated for 48 hrs by SRB assay
# UACC-62 = assay: Anticancer activity against human UACC-62 cells assessed as cell growth inhibition at 10 uM incubated for 48 hrs by SRB assay relative to control; settings: read-out: GI
# [17] = read-out: LC50 (the source's name)
smiles,measurement,setting,value
NS(=O)(=O)c1ccc(Nc2nc(N/N=C/c3ccccn3)nc(Nc3ccccc3)n2)cc1,GI50,SK-OV-3,840 nM
same,LC50,SK-OV-3,> 100 µM
same,inhibition of growth at 10 µM,OVCAR-4,120%
same,inhibition of growth at 10 µM,SK-MEL-28 [1],164%
same,GI50,RPMI-8226,2110 nM
same,LC50 (concentration killing 50% of cells),RPMI-8226,> 100 µM
same,inhibition of growth at 10 µM,TK-10 [2],97%
same,GI50,SK-MEL-28 [3],750 nM
same,CC50,SK-MEL-28 [3]; [17],6.19 µM
same,inhibition of growth at 10 µM,OVCAR-8,96%
same,inhibition of growth at 10 µM,K562,87%
same,inhibition of growth at 10 µM,SNB-19,90%
same,inhibition of growth at 10 µM,COLO 205 [4],142%
same,GI50,786-0 [5],1060 nM
same,CC50,786-0 [5]; [17],> 100 µM
same,GI50,MDA-MB-435,910 nM
same,LC50,MDA-MB-435,5.93 µM
same,GI50,ACHN,1120 nM
same,inhibition of growth at 10 µM,U-251,155%
same,GI50,COLO 205 [6],410 nM
same,CC50,COLO 205 [6]; [17],> 100 µM
same,inhibition of growth at 10 µM,BT-549 [7],120%
same,GI50,M14,850 nM
same,GI50,OVCAR-3,460 nM
same,LC50 (concentration killing 50% of cells),OVCAR-3,> 100 µM
same,inhibition of growth at 10 µM,EKVX,86%
same,GI50,BT-549 [8],890 nM
same,CC50,BT-549 [8]; [17],> 100 µM
same,inhibition of growth at 10 µM,OVCAR-5,90%
same,inhibition of growth at 10 µM,DU-145 [9],95%
same,GI50,HL-60(TB) [10],630 nM
same,CC50,HL-60(TB) [10]; [17],> 100 µM
same,inhibition of growth at 10 µM,NCI-H322M,109%
same,GI50,MDA-MB-468,310 nM
same,CC50,MDA-MB-468; [17],> 100 µM
same,inhibition of growth at 10 µM,HL-60(TB) [11],97%
same,GI50,PC-3,690 nM
same,CC50,PC-3; [17],> 100 µM
same,inhibition of growth at 10 µM,HOP-62,128%
same,inhibition of growth at 10 µM,SF-295 [12],100%
same,GI50,SF-295 [13],1400 nM
same,CC50,SF-295 [13]; [17],> 100 µM
same,inhibition of growth at 10 µM,786-0 [14],91%
same,GI50,CAKI-1,610 nM
same,CC50,CAKI-1; [17],> 100 µM
same,GI50,IGROV-1,790 nM
same,CC50,IGROV-1; [17],> 100 µM
same,inhibition of growth at 10 µM,RXF 393,174%
same,GI50,TK-10 [15],1190 nM
same,CC50,TK-10 [15]; [17],> 100 µM
same,GI50,DU-145 [16],850 nM
same,LC50 (50% lethal concentration),DU-145 [16],> 100 µM
same,GI50,MDA-MB-231,500 nM
same,LC50 (concentration killing 50% of cells),MDA-MB-231,> 100 µM
same,inhibition of growth at 10 µM,MOLT-4,96%
same,GI50,HCC 2998,650 nM
same,CC50,HCC 2998; [17],> 100 µM
same,inhibition of growth at 10 µM,UACC-62,149%
